Laboratory results as given in the NIST ThermoML archive (doi:10.1021/je049908l).
Numbers after ± are expanded uncertainties.

Tests used:
[1] = Crystal; DTA
[2] = Molar enthalpy of transition or fusion; details: Crystal; DSC

Normal melting temperature [1]: 71.80 ± 2.1 °C | Molar enthalpy of transition or fusion [2]: 44.9 ± 2.9 kJ/mol
SMILES: NC(C(=O)O)c1ccc(O)cc1.O=S(=O)(O)O (racemic) [DL-p-hydroxyphenylglycine sulfate]
